Data reported in US6303638A, “Substituted pyridines as modulators of the mammalian neuronal nicotinic acetylcholine receptor” (The Regents of the University of California, priority 1999, dated 2001).
“And” between values parts separate entries of the source, which are not always exact repeats. Identical values can stand only once. Like-named read-outs stand apart in the source and are kept apart here.

Key:
α4β2 nAChR = molecular target: T1, α4β2 nAChR (Rattus norvegicus, UniProt P09483+P12390); experiment: Inhibition of [3H](-)-nicotine binding to recombinant α4β2 nAChR
T1 construct: made in house; host or cells: Sf9 insect cells infected with each recombinant baculovirus stock; membrane preparation
Protocol: Representative compounds of the invention were investigated by way of the experimental protocol described below.
Production of recombinant α4β2 nAChR:
Recombinant baculovirus stocks containing inserts for the rat α4 and β2 nAChR subunits were independently amplified as described by Wang et al. (1996) J. Neurosci. Res. 44:350-354. Production of the α4β2 nAChR was achieved by infection of Sf9 insect cells with each recombinant viral stock. Cells were harvested 48-72 h post infection by centrifugation for 10 min at 100 g, then washed in a phosphate-bufferedsaline, and homogenized in a small volume of buffer (20 mM Tris-HCl, pH 7.4, 118 mM NaCl, […], 2.5 mM CaCl2, 1.2 mM MgSO4, and 1.0 mM EDTA), followed by centrifugation for 10 min at 300 g. The final step was centrifugation of the supernatant at 37000 g. The membrane pellet was resuspended in buffer and adjusted to 20 mg of total protein per 100 mL. These nAChR preparations were used immediately for binding assays or stored as single experiment aliquots at -80° C.
Reactions were terminated by addition of 3 mL ice-cold 0.9% NaCl followed by rapid vacuum filtration through filtermat B glass fiber filters and two 3-mL washes on the filter. Filters were pre-soaked at least 60 min in 0.1% w/v polyethyleneimine to reduce non-specific binding. […] The concentration of test compounds for 50% inhibition (IC50) was determined by iterative non-linear least-squares regression using the SigmaPlot program (Jandel Scientific Software, San Rafael, Calif.). The data reported are means±standard deviations with four determinations or are individual values for two determinations.

[1] = test system: insect versus the mammalian nAChR; details: Kagabu et al. (1997); Chao et al. (1997); cited from earlier work
humans [2] = details: administered into the human blood stream, even in relatively small amounts; cited from earlier work
humans [3] = details: taken orally; cited from earlier work
[4] = 1 nM [3H]nicotine, 30 min, 22° C., Sf9 cell membranes, means ± standard deviations, four determinations, read-out: Inhibition of [3H](-)-nicotine binding to α4β2 nAChR IC50
[5] = 1 nM [3H]nicotine, 30 min, 22° C., Sf9 cell membranes, individual values for two determinations, read-out: Inhibition of [3H](-)-nicotine binding to α4β2 nAChR IC50 (individual values for two determinations)

T1 sequence (P09483 31-630): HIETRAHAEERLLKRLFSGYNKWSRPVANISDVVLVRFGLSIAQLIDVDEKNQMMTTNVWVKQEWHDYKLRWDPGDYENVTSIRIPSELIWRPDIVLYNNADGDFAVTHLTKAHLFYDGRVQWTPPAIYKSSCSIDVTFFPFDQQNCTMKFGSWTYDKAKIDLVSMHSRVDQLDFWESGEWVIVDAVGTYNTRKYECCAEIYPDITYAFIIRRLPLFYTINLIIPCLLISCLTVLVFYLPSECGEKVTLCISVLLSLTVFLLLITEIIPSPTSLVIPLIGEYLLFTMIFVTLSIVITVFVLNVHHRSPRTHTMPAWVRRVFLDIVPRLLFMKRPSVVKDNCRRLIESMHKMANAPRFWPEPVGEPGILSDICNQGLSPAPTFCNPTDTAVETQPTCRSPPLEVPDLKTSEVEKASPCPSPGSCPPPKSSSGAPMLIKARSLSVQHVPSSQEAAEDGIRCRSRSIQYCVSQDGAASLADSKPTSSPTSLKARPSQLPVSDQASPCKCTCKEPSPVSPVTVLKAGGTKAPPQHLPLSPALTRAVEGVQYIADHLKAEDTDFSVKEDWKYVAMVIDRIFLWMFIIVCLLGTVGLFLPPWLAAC
T1 sequence (P12390 25-500): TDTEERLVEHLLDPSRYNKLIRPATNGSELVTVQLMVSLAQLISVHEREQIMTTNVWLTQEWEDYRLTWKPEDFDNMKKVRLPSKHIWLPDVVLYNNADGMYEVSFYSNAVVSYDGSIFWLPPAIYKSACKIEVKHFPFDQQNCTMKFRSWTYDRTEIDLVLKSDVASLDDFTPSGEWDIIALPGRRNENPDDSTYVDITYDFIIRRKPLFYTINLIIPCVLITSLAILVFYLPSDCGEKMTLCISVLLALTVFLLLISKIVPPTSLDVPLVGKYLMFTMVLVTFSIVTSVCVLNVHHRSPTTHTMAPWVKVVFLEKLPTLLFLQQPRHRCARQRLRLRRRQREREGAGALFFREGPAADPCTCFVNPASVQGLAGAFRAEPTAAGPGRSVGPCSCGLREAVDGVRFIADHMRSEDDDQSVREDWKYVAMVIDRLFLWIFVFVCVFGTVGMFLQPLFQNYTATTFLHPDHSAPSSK

Row | Structure (SMILES) | IC50 (α4β2 nAChR; [4]) | other results
1 | N=c1sccn1Cc1ccc(Cl)nc1 [Compound 9, 1-(6-Chloro-3-pyridinyl)methyl-2-iminothiazole] | 0.91 ± 0.4 nM | –
2 | CC[N+](CC)(CC)Cc1ccc(Cl)nc1 [Compound 11, 1-(6-Chloro-3-pyridinyl)methyl-1,1,1-triethylammonium chloride] | – | IC50 (α4β2 nAChR; [5]): 2400 nM and 3700 nM
3 | N=C1NCCCCN1Cc1ccc(Cl)nc1 [Compound 2, 1-[(6-Chloro-3-pyridinyl)methyl]-2-iminotetrahydrodiazepine] | 2.8 ± 1 nM | –
4 | N=C1NCCN1Cc1ccc(Cl)nc1 [1-[(6-chloro-3-pyridinyl)methyl]-2-imidazolidine] | – | selectivity insect versus mammalian nAChR [1]: selective for the mammalian versus the insect nAChR
5 | CN1CCC[C@H]1c1cccnc1 [nicotine] | – | central and peripheral effects of nicotine (humans [2]): fever, increased heart rate, trembling, nausea, increased blood pressure and convulsions; fatal oral dose (humans [3]): 250 to 350 mg
6 | O=[N+]([O-])NC1=NCCN1Cc1ccc(Cl)nc1 [imidacloprid] | – | selectivity insect versus mammalian nAChR [1]: acts selectively at the insect versus the mammalian nAChR
7 | N=C1CCCN1Cc1ccc(Cl)nc1 [Compound 5, 1-(6-Chloro-3-pyridinyl)methyl-2-iminopyrrolidine] | 3.5 ± 0.7 nM | –
8 | N=C1OCCN1Cc1ccc(Cl)nc1 [Compound 7, 1-[(6-Chloro-3-pyridinyl)methyl]-2-imino-1,3-oxazolidine] | 7.2 ± 2 nM | –
9 | Clc1ccc(CN2CCC2)cn1 [Compound 12, 1-(6-Chloro-3-pyridinyl)methylazetidine] | 16 ± 14 nM | –
10 | N=C1NCCCN1Cc1ccc(Cl)nc1 [Compound 1, 1-(6-Chloro-3-pyridinyl)methyl-2-iminotetrahydropyrimidine] | – | IC50 (α4β2 nAChR): 58 nM; IC50 (α4β2 nAChR; [5]): 63 nM
11 | Clc1ccc(CN2CCCCC2)cn1 [Compound 14, 1-(^6 -Chloro-3-pyridinyl)methylpiperidine] | 14 ± 3 nM | –
12 | Clc1ccc(CN2CCCC2)cn1 [Compound 13, 1-(^6 -Chloro-3-pyridinyl)methylpyrrolidine] | 8.8 ± 2.8 nM | –
13 | N=C1SCCN1Cc1ccc(Cl)nc1 [Compound 3, 1-(^6 -Chloro-3-pyridinyl)methyl-2-iminothiazolidine] | 2.3 ± 0.3 nM | –
14 | N=C1CCCCN1Cc1ccc(Cl)nc1 [Compound 6, 1-[(6-Chloro-3-pyridinyl)methyl]-2-iminopiperidine] | 11 ± 5 nM | –
15 | C[N+](C)(C)Cc1ccc(Cl)nc1 [Compound 10, 1-(6-Chloro-3-pyridinyl)methyl-1,1,1-trimethylammonium chloride] | – | IC50 (α4β2 nAChR; [5]): 16 nM and 20 nM
16 | N=C1SCCCN1Cc1ccc(Cl)nc1 [Compound 4, 1-[(6-Chloro-3-pyridinyl)methyl]-2-iminotetrahydrothiazine] | 14 ± 4 nM | –
17 | N=c1[nH]ccn1Cc1ccc(Cl)nc1 [Compound 8, 1-[(6-Chloro-3-pyridinyl)methyl]-2-iminoimidazole] | 23 ± 9 nM | –
